According to the OPERA property sets (Mansouri et al. 2018):

Row | SMILES | logP
1 | CCCCCCCCCc1ccccc1O | 5.76
2 | CCCCCCCCCCCc1ccccc1O | 7.17
3 | CCCCCCCCCc1cccc(O)c1 | 5.61
4 | CCCCCCCCCCCc1ccc(O)cc1 | 7.18
5 | CCCCCCCCCCCc1cccc(O)c1 | 6.98
6 | CCCCCc1ccc(O)c(O)c1 | 3.11
7 | CCCCCCCCCCCc1ccc(O)c(O)c1 | 6.97
8 | CCCCCCCCCc1ccc(O)cc1 | 5.76
9 | CCCCCCCCCCCCc1ccc(O)cc1 | 7.91

Further lines, results first:

Row | logP | SMILES
10 | 6.3 | CCCCCCCCCCCc1cccc(O)c1O
11 | 8.29 | CCCCCCCCCCCCCCCc1ccc(O)cc1O
12 | 7.75 | CCCCCCCCCCCCCc1cccc(O)c1O
13 | 8.61 | CCCCCCCCCCCCCc1ccccc1O
14 | 6.84 | CCCCCCCCCCCCCc1ccc(O)cc1O
